According to US7829728B2, “Diarymethyl and related compounds” (Theravance, Inc., priority 2003, dated 2010):

Columns and labels:
[1] = target: T1, M3 muscarinic receptor (hM3) (Homo sapiens, UniProt P20309); experiment: Radioligand binding assay for muscarinic receptors (Assay Test Procedure B); conditions: [3H]-NMS displacement, CHO cell membranes expressing hM3
T1 construct: expressed in transfected cells; host or cells: CHO cells, membranes
Experimental: CHO cell lines stably expressing cloned human hM1, hM2, hM3 and hM4 muscarinic receptor subtypes, respectively, were grown to near confluency in HAM's F-12 media supplemented with 10% FBS and 250 μg/mL Geneticin. The cells were grown in a 5% CO2, 37° C. incubator and lifted with 2 mM EDTA in dPBS. Cells were collected by 5 minute centrifugation at 650×g, and cell pellets were either stored frozen at −80° C. or membranes were prepared immediately for use. For membrane preparation, cell pellets were resuspended in lysis buffer and homogenized with a Polytron PT-2100 tissue disrupter (Kinematica AG; 20 seconds×2 bursts). Crude membranes were centrifuged at 40,000×g for 15 minutes at 4° C. […] The protein concentration of the membrane suspension was determined by the method described in Lowry et al., 1951, Journal of Biochemistry, 193, 265. […]
Radioligand binding assays for cloned human muscarinic receptors were performed in 96-well microtiter plates in a total assay volume of 100 μL. […] Filter plates were rinsed three times with wash buffer (10 mM HEPES) to remove unbound radioactivity. […] The plates were then counted in a PerkinElmer Topcount liquid scintillation counter (PerkinElmer Inc., Wellesley, Mass.). Binding data were analyzed by nonlinear regression analysis with the GraphPad Prism Software package (GraphPad Software, Inc., San Diego, Calif.) using the one-site competition model. […]

[2] = target: human β2 adrenergic receptor (Homo sapiens, UniProt P07550); experiment: Whole-cell cAMP Flashplate assay in CHO cell lines heterologously expressing human β2 adrenergic receptor (Assay Test Procedure C); assay type: cell-based; parameters: expressed in transfected cells; host or cells: CHO cells, membranes
Experimental: cAMP assays were performed in a radioimmunoassay format using the Flashplate Adenylyl Cyclase Activation Assay System with [^125I]-cAMP (NEN SMP004, PerkinElmer Life Sciences Inc., Boston, Mass.), according to the manufacturers instructions. For the determination of β receptor agonist potency (EC50), CHO-K1 cell lines stably expressing cloned human β1, β2 or β3 adrenergic receptors were grown to near confluency in HAM's F-12 media supplemented with 10% FBS and Geneticin (250 μg/mL). Cells were rinsed with PBS and detached in dPBS (Dulbecco's Phosphate Buffered Saline, without CaCl2 and MgCl2) containing 2 mM EDTA or Trypsin-EDTA solution (0.05% trypsin/0.53 mM EDTA). After counting cells in Coulter cell counter, cells were pelleted by centrifugation at 1,000 rpm and re-suspended in stimulation buffer containing IBMX (PerkinElmer Kit) pre-warmed to room temperature to a concentration of 1.6×10^6 to 2.8×10^6 cells/mL. About 60,000 to 80,000 cells per well were used in this assay. […] The amount of cAMP produced (pmol/well) was calculated based on the counts observed for the samples and cAMP standards as described in the manufacturer's user manual. Data were analyzed by nonlinear regression analysis with the GraphPad Prism Software package (GraphPad Software, Inc., San Diego, Calif.) with the sigmoidal equation. […]

human β2 adrenergic receptor, sequence (P07550 whole entry): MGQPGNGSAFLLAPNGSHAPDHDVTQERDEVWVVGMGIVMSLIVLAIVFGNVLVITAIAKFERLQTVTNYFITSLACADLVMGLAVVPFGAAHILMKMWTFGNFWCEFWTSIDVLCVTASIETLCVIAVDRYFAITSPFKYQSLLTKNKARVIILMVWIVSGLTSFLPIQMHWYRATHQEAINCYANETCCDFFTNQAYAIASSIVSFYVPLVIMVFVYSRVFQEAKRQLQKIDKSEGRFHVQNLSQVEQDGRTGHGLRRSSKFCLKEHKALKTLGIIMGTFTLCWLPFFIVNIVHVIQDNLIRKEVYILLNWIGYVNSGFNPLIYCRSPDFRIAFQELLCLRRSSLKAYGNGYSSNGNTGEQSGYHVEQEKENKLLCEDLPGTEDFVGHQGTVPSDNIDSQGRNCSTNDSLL
T1 sequence (P20309 whole entry): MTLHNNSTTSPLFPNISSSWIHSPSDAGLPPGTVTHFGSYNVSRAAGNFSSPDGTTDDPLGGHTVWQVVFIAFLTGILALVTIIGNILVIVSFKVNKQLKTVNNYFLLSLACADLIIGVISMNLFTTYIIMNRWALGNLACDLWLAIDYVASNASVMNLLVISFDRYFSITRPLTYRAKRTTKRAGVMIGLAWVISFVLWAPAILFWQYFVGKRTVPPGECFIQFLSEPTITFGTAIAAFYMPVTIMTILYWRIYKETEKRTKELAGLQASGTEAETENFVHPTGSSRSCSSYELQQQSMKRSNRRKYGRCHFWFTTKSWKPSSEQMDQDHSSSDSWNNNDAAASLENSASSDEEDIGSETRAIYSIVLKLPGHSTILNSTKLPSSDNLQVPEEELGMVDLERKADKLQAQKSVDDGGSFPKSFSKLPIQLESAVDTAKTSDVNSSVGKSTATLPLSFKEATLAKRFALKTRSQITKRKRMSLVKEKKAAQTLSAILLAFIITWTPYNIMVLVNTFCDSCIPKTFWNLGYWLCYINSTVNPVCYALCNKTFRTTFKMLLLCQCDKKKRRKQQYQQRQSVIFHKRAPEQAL

Q: How did the Ki [1] turn out when NC(=O)C(c1ccccc1)(c1ccccc1)[C@@H]1CCN(CCCCCCCCCNCC(O)c2ccc(O)c3[nH]c(=O)ccc23)C1 (mixture of isomers) [Example 1, 2-((S)-1-{9-[2-Hydroxy-2-(8-hydroxy-2-oxo-1,2-dihydroquinolin-5-yl)ethylamino]-nonyl}pyrrolidin-3-yl)-2,2-diphenylacetamide] was run?
A: Its Ki is < 50 nM.

Q: And the EC50 ([2]; cAMP, CHO-K1 cells expressing cloned human β2 receptor)?
A: The EC50 was < 10 nM.

Q: What about the “ratio of EC50(β1)/EC50(β2)” value ([2]; receptor subtype selectivity, functional cAMP, human β1 versus β2) of the same molecule?
A: Its value is “greater than 10”.
